# Data published in US20120141432A1, “USE OF CATALYTIC ANTIOXIDANT TO PRESERVE STEM CELL PHENOTYPE AND CONTROL CELL DIFFERENTIATION” (University of Pittsburgh- Of the Commonwealth System of …, priority 2010, published 2012).
# “Also recorded” adds a separate entry of the source.
# Key:
# Format in all cases: cell-based
# muscle stem cells [1] = assay: Division time, cell growth and proliferation of muscle stem cells
# Protocol: (§1) FIGS. 2A and 2B are a set of bar graphs showing the effect of the catalytic antioxidant FBC-007 on the differentiation of muscle stem cells. The effect of FBC-007 at a concentration of 34 μM was measured on the myogenic differentiation of muscle stem cells. Differentiation was determined as the % of nuclei located within myosin positive myotubes and multinucleated myotubes.
# In Vitro Live Cell Imaging (LCI) to study Quiescent Nondividing cells. In vitro LCI is used to measure the fraction or proportion which is quiescent and nondividing after cytokine stimulation. The LCI system is unique in providing time-lapse images to characterize the cell populations. Using CytoTracker, DataCollector, and informatics tools, the growth rates of the populations are determined as described previously (Deasy et al., Stem Cells 20, 50-60 (2002)). In this way subpopulations or individual cells can be quantified. The combined the cell growth counts and the data of cell division time is used to calculate the size of the non-dividing fraction via a non-exponential Sherley equation (Sherley et al., Cell Prolif. 28, 137-44 (1995)).
# [2] = test system: human umbilical cord mesenchymal stem cells; assay: Osteogenic differentiation of umbilical cord mesenchymal stem cells (ALP staining); settings: 34 μM, BMP4 0, 0.1 or 10 ng/mL, vs control with no antioxidant, FIG. 3
# Protocol: The cells were contacted with the catalytic antioxidant at a concentration of 34 μM and bone morphogenic protein (BMP4) at concentrations of 0, 0.1, or 10 ng/mL.
# Umbilical cord mesenchymal stem cells (UC-MSCs) were isolated and cultured. Cells were plated in the presence and absence of catalytic antioxidant. Live cell time-lapsed imaging was used to examine proliferation and apoptosis; images were analyzed using custom software obtained from Kairos Instruments. Osteogenic differentiation was stimulated using previously described methods; Alkaline Phosphatase (ALP) staining was used to determine stem cell differentiation (see Schugar et al., J Biomed Biotechnol 2009, 789526 (2009)). Cell phenotype was examined by flow cytometry (Schugar et al., J Biomed Biotechnol 2009, 789526 (2009)). Levels of intracellular reactive oxygen species were examined using dihydroxyrhodamine 123.
# stem cells = assay: Rescue from hydrogen peroxide-induced cell death
# Description: In other words, contacting stem cells with catalytic antioxidants allows the stem cells to proliferate (e.g. increase their numbers) without differentiating and losing the characteristics of stem cells, such as the phenotypic characteristics that distinguish stem cells from other cells. […] Thus, as disclosed herein contacting stem cells with catalytic antioxidants permits in vitro expansion of stem cells while delaying or inhibiting the differentiation of the stem cells, as well as protecting the stem cells from oxidative stress induced cell death.
# muscle stem cells [3] = assay: Myogenic differentiation of muscle stem cells (% of nuclei within myosin positive myotubes)
# Protocol: as §1
# In vitro Myogenic Differentiation: Cell populations from 3 different time points (<5 PDs, midpoint PDs, and maximal expansion) are evaluated. Briefly cells are plated at high density of 2000 cells/cm^2 in a low serum medium. After 3-4 days in culture, the media is changed to low serum or 2% serum medium. After day 7, immunocytochemical staining is performed to reveal fast myosin heavy chain (MyHC) expression. Methanol-fixed cultures are blocked with 5% HS and incubated with monoclonal mouse anti-MyHC (Sigma, 1:250, Sigma), biotinylated IgG (1:250, Vector), and streptavidin-Cy3 (1:500). […] In vitro differentiation efficiency is calculated as the ratio of myogenic nuclei to total nuclei.
# human skMSC [4] = assay: Growth factor dose response of human skMSC by time-lapsed imaging; settings: for number of muscle stem cells: after 3 days in 100 ng/mL, vs lower doses and unstimulated controls; for response of human skMSC to growth factor: time-lapsed imaging
# muscle stem cells [5] = assay: ROS in muscle stem cells grown with FGF-2; settings: cells grown with FGF-2 vs absence of FGF-2, FIG. 5C
# Description: FIGS. 5A-5D are bar graphs, a plot and an electronic image showing that oxidative stress decreases cell viability (FIG. 5A) and myogenic differentiation capacity (FIG. 5B). […] FIG. 5D is an electronic image of muscle cells showing that myosin (staining) declines as ROS increases.
# human skMSC [6] = assay: BrdU pulse detection of nondividing cells; settings: 3 days exposure, BrdU pulse 36 hours, P=0.01
# Protocol: Nondividing cells were also detected within the human muscle cell population in the context of GF-dose-dependent studies. […] The cells were pulsed with BrdU for 36 hours (division time=19±4 hrs) immunostaining was performed to detect labeled and unlabeled cells.
# muscle stem cells [7] = assay: Growth rate of muscle cells after CFSE labeling; settings: 0 μM, 1 μM or 5 μM CFSE, FIG. 7B
# Protocol: Cells were stained at 1.0 μM, and then analyzed at 0, 2, and 5 days. Note that the low fluorescence intensity approaches that of unstained cells by day 5. FIG. 7D is a plot of sample lineage trees showing the presence of dividing and non-dividing cells. FIG. 7E is a set of plots showing that 24 hours after injection into mdx mice, CFSE-labeled cells are detectable.
# Both time-lapsed imaging and FACS sorting were applied to the quiescent population using used cytoplasmic tracking dyes, used 5-6-carboxyfluorescein diacetate, succinimdyl ester, CFSE, and a similar molecule, CMFDA. Once cell permeable CFDA-SE is taken up by cells, intracellular esterases in the cytoplasm cleave acetate groups and convert CFDA to fluorescent CFSE. It was first confirmed that CFSE is impermeable; it was not taken in by unlabeled neighboring cells when CFSE-positive cells die (FIG. 7A). An approach was developed to use CFSE as an effective method for labeling of muscle cells.
# [8] = stem cell cultures, muscle stem cell and mesenchymal stem cells
compound,measurement,setting,value
"CC[n+]1ccccc1-c1c2nc(c(-c3cccc[n+]3CC)c3ccc([n-]3)c(-c3cccc[n+]3CC)c3nc(c(-c4cccc[n+]4CC)c4ccc1[n-]4)C=C3)C=C2.[Mn+3] [FBC-007, Mn(III)tetrakis(N-ethylpyridinium-2-yl)porphyrin]",division time of the muscle stem cells,"muscle stem cells [1]; FBC-007 34 μM, FIG. 2B",does not show a statistically significant change
same,cell growth,muscle stem cells [1]; FIGS. 6A and 6B,did not affect cell growth; also recorded: does not affect cell growth
same,proliferation of the stem cells,muscle stem cells [1]; [8],without affecting the proliferation
same,osteogenic differentiation,[2],reduced osteogenic differentiation
same,hydrogen peroxide-induced cell death,stem cells,can rescue the stem cells
same,myogenic differentiation (% of nuclei located within myosin positive myotubes and multinucleated myotubes),"muscle stem cells [3]; FBC-007 34 μM vs controls without antioxidant, FIG. 2A",reduced levels of differentiation relative to controls
same,uninduced myogenic differentiation,"muscle stem cells [3]; absence of growth factor (GF) stimulation, FIG. 6C",prevents uninduced myogenic differentiation
same,myogenic differentiation in stem cell cultures,muscle stem cells [3]; [8],inhibits the myogenic differentiation
"FGF-2: FGF-2 (basic fibroblast growth factor, bFGF)",number of muscle stem cells,human skMSC [4],significantly more muscle stem cells
same,response of human skMSC to growth factor,human skMSC [4],dose-dependent response
same,reactive oxygen species (ROS),muscle stem cells [5],increase in some muscle stem cells
IGF-1: Insulin-like growth factor 1,number of muscle stem cells,human skMSC [4],significantly more muscle stem cells
same,response of human skMSC to growth factor,human skMSC [4],dose-dependent response
same,nondividing cells (BrdU [−]),human skMSC [6],significantly fewer nondividing cells
carboxyfluorescein diacetate succinimidyl ester [CFSE],growth rates after CFSE treatment,muscle stem cells [7],does not affect growth rates
